Source: US6512130B1, “Mifepristone analogue, process for the preparation thereof and use thereof” (Council of Scientific and Industrial Research, priority 2000, dated 2003)
Where “and” joins values, the source holds several entries; their conditions need not be identical. Identical values can stand only once.

biological target: T1, rabbit uterine progesterone receptor (Oryctolagus cuniculus, UniProt P06186); assay: Competitive binding assay for progesterone receptors using rabbit uterine cytosol and 3H-progesterone; settings: rabbit uterine cytosol, 3H-progesterone 8×10^−9 M, 1 μM unlabelled cortisol, 4° C. 20 hours; progesterone taken as 100
T1 construct: performed using rabbit uterine cytosol and 3H progesterone (radioligand); from tissue; host or cells: uterus of immature, estradiol-dipropionate-primed rabbits; 105000 x g cytosol treated with dextran-coated charcoal
T1 sequence (P06186 1-930): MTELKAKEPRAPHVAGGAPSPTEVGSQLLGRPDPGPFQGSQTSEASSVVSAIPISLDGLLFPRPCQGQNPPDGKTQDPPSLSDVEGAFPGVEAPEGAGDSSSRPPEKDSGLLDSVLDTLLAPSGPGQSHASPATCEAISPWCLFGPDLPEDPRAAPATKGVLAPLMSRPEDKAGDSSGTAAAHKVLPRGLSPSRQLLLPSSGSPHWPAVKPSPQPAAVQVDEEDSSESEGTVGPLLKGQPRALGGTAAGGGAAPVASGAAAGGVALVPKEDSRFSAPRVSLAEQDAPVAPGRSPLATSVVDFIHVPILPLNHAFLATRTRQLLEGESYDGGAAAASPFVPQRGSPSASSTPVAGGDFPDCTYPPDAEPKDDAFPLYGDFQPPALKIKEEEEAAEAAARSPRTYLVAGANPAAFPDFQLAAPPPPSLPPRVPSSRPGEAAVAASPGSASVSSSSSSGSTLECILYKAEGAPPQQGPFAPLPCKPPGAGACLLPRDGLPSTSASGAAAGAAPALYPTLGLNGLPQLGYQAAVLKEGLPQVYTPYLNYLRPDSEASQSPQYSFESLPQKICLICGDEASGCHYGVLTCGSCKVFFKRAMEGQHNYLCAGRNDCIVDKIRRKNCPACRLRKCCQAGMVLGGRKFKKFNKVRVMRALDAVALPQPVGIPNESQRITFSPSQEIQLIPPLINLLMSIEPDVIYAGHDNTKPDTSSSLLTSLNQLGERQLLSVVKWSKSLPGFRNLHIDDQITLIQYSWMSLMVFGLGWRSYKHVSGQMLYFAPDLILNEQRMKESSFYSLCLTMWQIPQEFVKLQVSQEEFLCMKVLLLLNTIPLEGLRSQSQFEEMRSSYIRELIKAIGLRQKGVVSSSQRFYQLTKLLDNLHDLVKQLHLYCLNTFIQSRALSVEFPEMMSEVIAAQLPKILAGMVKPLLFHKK
Protocol: Crude products 3, 4, and 5 may be purified by column chromatography using silica gel, basic alumina, acidic alumina or neutral alumina as adsorbants and ethyl acetate, ethyl acetate-benzene, or ethyl acetate-chloroform as solvent systems. […] The competitive binding assay for progesterone receptors (PR) was performed using rabbit uterine cytosol and 3H progesterone (radioligand) in the presence of unlabelled cortisol at 4° C. Competitor dilutions were prepared in DMF:Tris buffer pH 7.4 (1:1). […] The activity of progesterone is taken as 100.
Animals. Immature rabbits weighing about 1 kg were administered 100 μg estradioldipropionate intramuscularly for four days and were sacrificed on the fifth day. Uteri were removed, washed with ice cold saline and weighed. Uteri were homogenised in four volumes of 50 mM Tris buffer, pH 7.4 containing 1 mM EDTA, 12 mM monothioglycerol and 10% glycerol (v/v) at 2° C. using polytron PT-10 homoniser.
The homogenate was ultracentrifuged at 105000×g for 60 minutes at 4° C. The resultant supernatant (cytosol) was treated with equal volume of dextran coated charcoal (0.5% charcoal and 0.05% dextran in TEMG buffer) for 30 minutes with occasional stirring at 0° C. DCC treated cytosol was used for binding assay.
Prior to the assay, cytosol was Incubated with 1 μM unlabelled cortisol for 30 minutes at 0° C. Aliquots of the cytosol were incubated at 4° C. for 20 hours with a constant concentration of ^3H-progesterone (8×10^−9 M) in the absence or presence of increasing concentration (1 to 10000×10^−9 M) of either unlabelled progesteroine or test compounds. ^3H-progesterone bound was measured for each incubate by the technique of charcoal adsorption.
Calculation of relative binding affinity of test compounds was done by plotting the curves between the percentage of bound titrated progesterone as a function of the iogarithm of the unlabelled progesterone concentration and as a function of logarithm of the concentration of unlabelled test compounds (FIGS. 1 and 2). […]

Question: For CC(=O)[C@H]1CC[C@H]2[C@@H]3CCC4=CC(=O)CC[C@]4(C)[C@H]3CC[C@]12C [Progesterone], which “Relative binding affinity (%)” value is on record?
Answer: 100%

Question: For CC#C[C@]1(O)CC[C@H]2[C@@H]3CCC4=CC(=O)CCC4=C3[C@@H](c3ccc(N(C)C)cc3)C[C@@]21C [Compound 6, Mifepristone], which “Relative binding affinity (%)” value is on record?
Answer: 103% and 103.44%

Question: How did the “Relative binding affinity (%)” value turn out when CC(C)C#C[C@]1(O)CCC2C3CCC4=CC(=O)CCC4=C3C(c3ccc(N(C)C)cc3)C[C@@]21C (stereo partly drawn) [Compound 1, 11β-[4-(N,N-dimethylamino)phenyl]-17β-hydroxy-17α-(3-methyl-1-butynyl)-estra-4,9-dien-3-one] was run?
Answer: 174.65%
